Laboratory results published in ChEMBL document CHEMBL5604063, “ASAP - DENV-2 NS2B-NS3 protease fluorescence dose response” (2024).
“And” between values parts separate entries of the source, which are not always exact repeats. Identical values can stand only once.

Tests used:
[1] = molecular target: T1, Genome polyprotein (dengue virus type 2, UniProt P29990); assay type: functional, Thailand/16681/1984
[2] = molecular target: T1, Genome polyprotein; assay type: functional, Thailand/16681/1984; remark: listed apart in the source

T1 sequence (P29990 1346-1475 limits assumed): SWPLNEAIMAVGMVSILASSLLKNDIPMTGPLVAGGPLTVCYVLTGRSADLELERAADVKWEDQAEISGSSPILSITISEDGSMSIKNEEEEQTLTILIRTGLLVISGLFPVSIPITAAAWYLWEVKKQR
T1 sequence (P29990 1476-2093 limits assumed): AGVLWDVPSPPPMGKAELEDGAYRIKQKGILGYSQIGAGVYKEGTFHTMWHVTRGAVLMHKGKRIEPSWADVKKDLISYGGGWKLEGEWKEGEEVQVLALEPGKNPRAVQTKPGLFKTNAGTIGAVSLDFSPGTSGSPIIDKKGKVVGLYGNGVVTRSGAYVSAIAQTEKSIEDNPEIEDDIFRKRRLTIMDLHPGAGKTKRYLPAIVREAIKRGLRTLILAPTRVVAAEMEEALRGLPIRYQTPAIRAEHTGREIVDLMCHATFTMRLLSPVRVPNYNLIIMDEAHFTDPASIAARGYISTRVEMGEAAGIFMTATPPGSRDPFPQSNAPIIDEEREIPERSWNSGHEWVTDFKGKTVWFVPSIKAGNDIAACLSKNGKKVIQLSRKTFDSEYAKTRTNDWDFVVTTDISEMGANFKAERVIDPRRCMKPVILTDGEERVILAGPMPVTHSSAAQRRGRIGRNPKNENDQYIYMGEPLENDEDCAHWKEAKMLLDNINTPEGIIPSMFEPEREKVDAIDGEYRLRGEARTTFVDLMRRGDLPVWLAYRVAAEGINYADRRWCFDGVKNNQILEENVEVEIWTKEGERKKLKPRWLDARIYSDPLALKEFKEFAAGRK

| Compound | IC50 [1] | IC50 [2] |
| --- | --- | --- |
| Cc1c(C(=O)Nc2cc(C3(C)OCCO3)ccn2)cc(C2CC2)n1C | > 99.5 µM | > 100 µM |
| O=C(Nc1cc2c(cc1Br)CNC2)c1cc(Cl)cc2[nH]ncc12 | > 99.5 µM | > 100 µM |
| Cc1c(C(=O)Nc2cccc([C@H]3CCOC3)c2)cc(C2CC2)n1C | > 99.5 µM | > 100 µM |
| O=C(Nc1cc(-c2cccnc2)ccn1)c1nc(C2CC2)co1 | > 99.5 µM | > 100 µM |
| Cn1cc(C(F)(F)F)nc1C(=O)Nc1cc(-c2cccnc2)ccn1 | > 99.5 µM | > 100 µM |
| COCCNC(=O)[C@H](Nc1cccc([C@H]2CCOC2)c1)c1cc(Cl)cc2[nH]ncc12 | > 99.5 µM | > 100 µM |
| O=C(Nc1ccc2c(c1)CNC2)c1cc(Cl)cc2[nH]c(-c3nc4c(s3)CCC4)nc12 | 16.4 µM | > 100 µM |
| CC(C)n1cc(C(=O)Nc2cc(-c3cccnc3)ccn2)c2ccccc21 | > 99.5 µM | > 100 µM |
| O=C(Nc1ccc2c(c1)C(=O)OC2)c1cc(CC2CCNCC2)ccc1F | > 99.5 µM | > 100 µM |
| Cn1nc(C(=O)Nc2cc(-c3cccnc3)ccn2)cc1C1CC1 | > 99.5 µM | > 100 µM |
| O=C(Nc1ccc2c(c1)CNC2)c1cc(Cl)cc2[nH]c(-c3ccc(F)cc3O)nc12 | 23.8 µM | 60.1 µM |
| O=C1OCc2ccc(NC(=O)c3cccc4c3CNC4)cc21 | > 99.5 µM | > 100 µM |
| CCOC(=O)c1csc([C@H]2CCCN2C(=O)Nc2ccc3c(c2)CNC3)n1 | > 99.5 µM | > 100 µM |
| CNC(=O)[C@H](Nc1ccc2c(c1)CNC2)c1cccc2[nH]c(C(F)(F)F)nc12 | > 99.5 µM | > 100 µM |
| Cc1c(C(=O)Nc2cc(-c3cccnc3)ccn2)cc(C(C)C)n1C | > 99.5 µM | > 100 µM |
| O=C(NCC(F)F)[C@H](Nc1ccc2c(c1)CNC2)c1cc(F)cc2[nH]ccc12 | > 99.5 µM | > 100 µM |
| O=C(Nc1ccc2c(c1)CNC2)c1cc(Cl)cc2[nH]c(-c3cn[nH]c3)cc12 | > 99.5 µM | > 100 µM |
| Cc1c(C(=O)Nc2cc(-c3cccnc3)ccn2)cc(C2CCCCC2)n1C | > 99.5 µM | > 100 µM |
| c1cc([C@@H]2C[C@H]2c2ccc3c(c2)CNC3)c2cn[nH]c2c1 | > 99.5 µM | > 100 µM |
| Cc1c(C(=O)Nc2cc(C3CCOCC3)ccc2F)cc(C2CC2)n1C | > 99.5 µM | > 100 µM |
| C[C@](N)(C(=O)Nc1ccc2c(c1)C(=O)OC2)c1cccs1 | > 99.5 µM | > 100 µM |
| O=C(Nc1cc(-c2cccnc2)ccn1)c1cnn2c1CCC2 | > 99.5 µM | > 100 µM |
| O=C(NCCC1CC1)[C@H](Nc1ccc2c(c1)CNC2)c1cc(Cl)cc(C2CC2)c1 | > 99.5 µM | > 100 µM |
| Cc1c(C(=O)NCc2ccnc(OC3CCOCC3)c2)cc(C2CC2)n1C | > 99.5 µM | > 100 µM |

| Compound | IC50 [1] | IC50 [2] |
| --- | --- | --- |
| O=C1Cc2c(C(=O)Nc3ccc4c(c3)CNC4)ccnc2N1 | > 99.5 µM | > 100 µM |
| Cc1c(C(=O)NCc2cccc(C3COC3)c2)cc(C2CC2)n1C | > 99.5 µM | > 100 µM |
| O=C(Nc1cc([C@H]2CCOC2)ccn1)c1cc(Cl)cc2c1CCC2 | > 99.5 µM | > 100 µM |
| O=C(Nc1ccc2c(c1)C(=O)OC2)c1ccc2c(c1)CNC2 | > 99.5 µM | > 100 µM |
| COc1ccc(-c2nc3c(C(=O)Nc4ccc5c(c4)CNC5)cc(Cl)cc3[nH]2)cc1 | 21.5 µM | 39.5 µM and 40.3 µM |
| O=C(Nc1ccc2c(c1)C(=O)OC2)c1cccc(CC2CNC2)c1 | > 99.5 µM | > 100 µM |
| O=C(Nc1cc(-c2cccnc2)ccn1)c1csc(C2CC2)n1 | > 99.5 µM | > 100 µM |
| O=C(Nc1cc(Br)c2c(c1)CNC2)c1cc(F)cc2[nH]ncc12 | 40.4 µM | 30.6 µM and 22.5 µM |
| O=C(Nc1ccc2c(c1)CNC2)c1cc(C(F)(F)F)c2cn[nH]c2n1 | > 99.5 µM | > 100 µM |
| O=C(NCC(F)F)[C@H](Nc1ccc2c(c1)CNC2)c1cc(F)cc2[nH]ncc12 | > 99.5 µM | 78.2 µM |
| O=C1OCc2ccc(NC(=O)[C@H]3CCNC3)cc21 | > 99.5 µM | > 100 µM |
| C=CC[C@H]1NCc2cc(N[C@H](C(=O)NC(C)C)c3cc(Cl)cc4[nH]ncc34)ccc21 | 63.9 µM | 56.9 µM |
| CNC(=O)[C@H](Nc1cccc([C@H]2CCOC2)c1)c1cc(C2CC2)n(C)n1 | > 99.5 µM | > 100 µM |
| NCc1cc(Cl)cc(C(=O)Nc2cc([C@H]3CCOC3)ccn2)c1 | > 99.5 µM | > 100 µM |
| CC1=C(c2cc(NC(=O)c3cc(Cl)cc4[nH]ncc34)cc3c2CNC3)CCC1=O | > 99.5 µM | > 100 µM |
| Cc1c(C(=O)Nc2cc(-c3cccnc3)ccn2)cc(C(C)(C)C)n1C | > 99.5 µM | > 100 µM |
| Cn1c(C2CC2)cc(C(=O)Nc2cc(-c3cccnc3)ccn2)c1C1CC1 | > 99.5 µM | > 100 µM |
| O=C1OCc2ccc(NC(=O)[C@H]3CNCc4[nH]ncc43)cc21 | > 99.5 µM | > 100 µM |
| O=C(Nc1cc(-c2cccnc2)ccn1)c1cc(C2CC2)no1 | > 99.5 µM | > 100 µM |
| O=C(Nc1cc2c(c(C3=CC[C@H](O)CC3)c1)CNC2)c1cc(Cl)cc2[nH]ncc12 | 69.5 µM | > 100 µM |
| Cn1nc(C2CC2)cc1C(=O)Nc1cc(-c2cccnc2)ccn1 | > 99.5 µM | > 100 µM |
| CNC(=O)[C@H](Nc1ccc2c(c1)CNC2)c1cc(Cl)cc2c1OCC2 | > 99.5 µM | > 100 µM |
| CC(C)NC(=O)[C@H](Nc1ccc2c(c1)CNC2)c1cc(F)cc2[nH]ccc12 | > 99.5 µM | > 100 µM |
| O=C(Nc1cc(-c2cccnc2)ccn1)c1cnc(C2CC2)s1 | > 99.5 µM | > 100 µM |

| Compound | IC50 [1] | IC50 [2] |
| --- | --- | --- |
| NS(=O)(=O)c1cc(F)cc(C(=O)Nc2ccc3c(c2)CNC3)c1 | > 99.5 µM | > 100 µM |
| CC1(C)C[C@H](C(=O)Nc2ccc3c(c2)C(=O)OC3)CCN1 | > 99.5 µM | > 100 µM |
| Cc1nnc(SC[C@H]2CCCN2C(=O)Nc2ccc3c(c2)CNC3)s1 | > 99.5 µM | > 100 µM |
| O=C1Cc2cc(C(=O)Nc3ccc4c(c3)CNC4)c(Cl)cc2N1 | > 99.5 µM | 35.9 µM and 22.7 µM |
| O=C(Nc1ccc2c(c1)CNC2)c1cc(F)cc2c1CCNC2 | > 99.5 µM | > 100 µM |
| O=C(Nc1ccc2c(c1)CNC2)c1cc(Br)cc2c1nc1n2CCCC1 | 23.8 µM | 47.5 µM and 35.2 µM |
| O=C(Nc1ccc2c(c1)CNC2)c1n[nH]c2ccc(F)cc12 | > 99.5 µM | 78.7 µM |
| Fc1cc(CNc2ccc3c(c2)CNC3)c2cn[nH]c2c1 | > 99.5 µM | > 100 µM |
| NCCC1(C(=O)Nc2ccc3c(c2)C(=O)OC3)CCCC1 | > 99.5 µM | > 100 µM |
| O=C(Nc1cc(-c2cccnc2)ccn1)c1cc(C2CC2)[nH]n1 | > 99.5 µM | > 100 µM |
| O=C(Nc1cc(-c2cccnc2)ccn1)c1cc2n(n1)CCS2(=O)=O | > 99.5 µM | > 100 µM |
| Cn1nc(C(=O)Nc2cc([C@H]3CCOC3)ccn2)cc1C1CC1 | > 99.5 µM | > 100 µM |
| O=C1OCc2ccc(NC(=O)c3cc(F)cc4c3CCNC4)cc21 | > 99.5 µM | > 100 µM |
| Cc1c(C(=O)Nc2cccc(C3CCOCC3)c2)cc(C2CC2)n1C | > 99.5 µM | > 100 µM |
| O=C(Nc1cc(-c2cccnc2)ccn1)c1coc(C2CC2)n1 | > 99.5 µM | > 100 µM |
| N#Cc1cccc(-c2nc3c(C(=O)Nc4ccc5c(c4)CNC5)cc(Cl)cc3[nH]2)c1 | 1.76 µM and 2.66 µM | 17.3 µM and 12.2 µM |
| CO[C@]1(C(=O)Nc2ccc3c(c2)C(=O)OC3)CCCNC1 | > 99.5 µM | > 100 µM |
| Cc1c(C(=O)Nc2cc(-c3cccnc3)ccn2)cc(C2CCC2)n1C | > 99.5 µM | > 100 µM |
| O=C(Nc1cc(-c2cccnc2)ccn1)c1cc2n(n1)CC(F)(F)C2 | > 99.5 µM | > 100 µM |
| O=C(Nc1ccc2c(c1)CNC2)c1cc(F)cc(-c2cnc(C3CC3)s2)c1 | > 99.5 µM | > 100 µM |
| O=C(Nc1cc(-c2cccnc2)ccn1)c1cc2n(n1)CC1(CC1)C2 | > 99.5 µM | > 100 µM |
| Cn1nc(C(F)(F)F)cc1C(=O)Nc1cc(-c2cccnc2)ccn1 | > 99.5 µM | > 100 µM |
